Patent US20100204157A1, “USE OF A PEPTIDE AS A THERAPEUTIC AGENT” (priority 2007, published 2010)
Where no end group is shown, it is not given here.

System: drug-resistant Mycobacterium tuberculosis
Conditions: 5 micrograms per ml

FFVAP [Phe-Phe-Val-Ala-Pro]
% inhibition: 0.0%
